Assay results as given in patent publication US9790215B2 (FLATLEY DISCOVERY LAB, LLC, priority 2013, dated 2017).

The compounds below were run against T1, human ΔF508-CFTR (Homo sapiens, UniProt P13569, DEL508-508) (assay: CFTR-YFP High Throughput Assay (YFP halide flux in FRT cells)). Details: FRT cells expressing human ΔF508-CFTR and YFP; forskolin stimulated.
T1 construct: expressed in transfected cells
Assay type: cell-based
Experimental: Assays for Detecting and Measuring the Effect of Compounds on dF508-CFTR Channels CFRT-YFP High Throughput Assay:
The following protocol is designed to selectively screen small molecule compounds for F508del CFTR corrector activities in the HTS YFP flux assay. In this protocol, the cells are incubated with testing compounds for 24 hours, washed with PBS, stimulated with forskolin and a standard potentiator, and read on a 384-well HTS plate reader, such as the Hamamatsu FDDD-6000.
(§1) YFP fluorescence intensity is acquired at high speed before and after iodide buffer is injected to the assay cells. Iodide enters the cells via active CFTR channels in the plasma membrane, and quenches the YFP fluorescence. The rate of fluorescence quenching is proportionally related to the total CFTR activities in the cell membrane. dF508-CFTR corrector accelerates YFP quenching by increasing the number of CFTR molecules in the testing cell plasma membrane.
This method was initially developed for bench top plate readers (Galietta et al., 2001), and was adapted to the HTS format (Sui et al. Assay Drug Dev. Technol. 2010).
Fisher Rat Thyroid (FRT) cells stably expressing both human AF508-CFTR and a halide-sensitive yellow fluorescent protein (YFP—H148Q/1152L 25, 22) (Galietta et al., Am. J. Physiol Cell Physiol 281(5), C1734, 2001) were cultured on plastic surface in Coon's modified Ham's F12 medium supplemented with FBS 10%, L-glutamine 2 mM, penicillin 100 U/mL, and streptomycin 100 μg/mL. G418 (0.75-1.0 mg/mL) and zeocin (3.2 ug/mL) were used for selection of FRT cells expressing ΔF508-CFTR and YFP. For primary screening, FRT cells were plated into 384-well black wall, transparent bottom microtiter plates (Costar; Corning Inc.) at a cell density of 20,000-40,000 per well. Test compound was applied to the cells at varying concentrations ranging from […] in either a 2-fold or 3-fold dilution series. Cells were incubated in a cell culture incubator at 37° C. with 5% CO2 for 24-26 h. Assay plates were washed with DPBS media (Thermo, cat# SH30028.02) to remove unbound cells and compound. Stimulation media (25 μL) containing 20 μM Forskolin & 30 μM P3 [6-(Ethyl-phenyl-sulfonyl)-4-oxo-1,4-dihydro-quinoline-3-carboxylic acid 2-methoxy-benzylamide] in Hams F-12 coon's modified media was added to the plate wells and incubated at room temperature for 60-120 min. 25 μL of HEPES-PBS-I buffer (10 mM HEPES, 1 mM MgCl2, 3 mM KCl, 1 mM CaCl2, 150 mM NaI) was then added and fluorescence quench curves (Excitation 500 nm/Emission 540 nm; exposure 136 ms) were immediately recorded on an FDSS-6000 plate reader (Hamamatsu). Quench rates were derived from least squares fitting of the data as described by Sui et al., (2010).
The following protocol is designed to selectively screen small molecule compounds for F508del CFTR potentiator activities in the HTS YFP flux assay. In this protocol, the cells are incubated at 27 C for 24 hours with homogeneously boosted dF508-CFTR expression in the cell membrane by the low temperature, washed with PBS, stimulated with forskolin, and read on a 384-well HTS plate reader, such as the Hamamatsu FDDD-6000.
as §1, with “dF508del-CFTR potentiators accelerate” for “dF508-CFTR corrector accelerates”, “increasing” for “increasing the number of”, “activities” for “molecules”
Fisher Rat Thyroid (FRT) cells stably expressing both human ΔF508-CFTR and a halide-sensitive yellow fluorescent protein (YFP-H148Q/I152L 25, 22) (Galietta et al., Am. J. Physiol Cell Physiol 281(5), C1734, 2001) were cultured on plastic surface in Coon's modified Ham's F12 medium supplemented with FBS 10%, L-glutamine 2 mM, penicillin 100 U/mL, and streptomycin 100 μg/mL. […]

T1 sequence (P13569 with tags, fused parts or gaps DEL508-508): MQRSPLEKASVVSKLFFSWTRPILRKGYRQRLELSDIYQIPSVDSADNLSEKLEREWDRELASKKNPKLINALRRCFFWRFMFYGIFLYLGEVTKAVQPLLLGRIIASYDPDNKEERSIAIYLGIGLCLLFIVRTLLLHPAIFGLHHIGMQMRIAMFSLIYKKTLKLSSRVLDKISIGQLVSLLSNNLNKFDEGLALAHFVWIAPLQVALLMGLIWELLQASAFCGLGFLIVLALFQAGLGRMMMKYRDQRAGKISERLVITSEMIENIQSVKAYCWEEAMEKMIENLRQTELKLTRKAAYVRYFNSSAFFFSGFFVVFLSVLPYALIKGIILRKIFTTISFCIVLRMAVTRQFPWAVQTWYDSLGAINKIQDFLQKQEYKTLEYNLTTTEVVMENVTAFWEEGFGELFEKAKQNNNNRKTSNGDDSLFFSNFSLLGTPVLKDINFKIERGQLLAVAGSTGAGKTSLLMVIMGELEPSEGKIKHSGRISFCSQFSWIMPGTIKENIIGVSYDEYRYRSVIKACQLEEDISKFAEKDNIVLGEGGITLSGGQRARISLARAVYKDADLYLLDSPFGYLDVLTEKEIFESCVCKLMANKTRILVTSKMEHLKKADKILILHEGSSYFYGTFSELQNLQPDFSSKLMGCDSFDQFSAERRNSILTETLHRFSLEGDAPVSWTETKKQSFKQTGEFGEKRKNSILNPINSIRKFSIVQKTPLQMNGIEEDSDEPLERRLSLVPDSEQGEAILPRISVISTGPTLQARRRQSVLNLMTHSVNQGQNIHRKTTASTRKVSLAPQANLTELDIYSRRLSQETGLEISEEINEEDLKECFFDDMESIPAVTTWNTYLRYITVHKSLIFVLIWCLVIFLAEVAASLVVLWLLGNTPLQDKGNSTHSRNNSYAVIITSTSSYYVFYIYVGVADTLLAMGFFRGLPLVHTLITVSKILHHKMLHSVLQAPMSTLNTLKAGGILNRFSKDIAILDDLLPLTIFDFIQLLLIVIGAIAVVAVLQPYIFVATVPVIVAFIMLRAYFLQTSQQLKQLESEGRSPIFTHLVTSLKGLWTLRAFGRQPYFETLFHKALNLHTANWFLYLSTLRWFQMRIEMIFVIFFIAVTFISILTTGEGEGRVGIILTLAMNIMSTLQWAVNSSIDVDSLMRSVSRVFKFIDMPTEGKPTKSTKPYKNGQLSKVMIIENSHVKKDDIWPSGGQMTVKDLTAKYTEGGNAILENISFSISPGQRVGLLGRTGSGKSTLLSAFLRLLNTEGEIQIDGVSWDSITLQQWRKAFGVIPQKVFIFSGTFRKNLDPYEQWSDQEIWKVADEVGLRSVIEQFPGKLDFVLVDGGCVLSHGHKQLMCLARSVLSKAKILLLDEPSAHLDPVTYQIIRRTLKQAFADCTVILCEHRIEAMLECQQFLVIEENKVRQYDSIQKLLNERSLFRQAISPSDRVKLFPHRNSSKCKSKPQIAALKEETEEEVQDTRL

`CCc1ccc(N(CC)C(=O)Cn2nc(Cc3cccnc3)c3cc(OC)ccc3c2=O)cc1` [Example 36, N-ethyl-N-(4-ethylphenyl)-2-(6-methoxy-1-oxo-4-(pyridin-3-ylmethyl)phthalazin-2(1H)-yl)acetamide] and `CCc1ccc(N(CC)C(=O)Cn2nc(Cc3cccnc3)c3cc(Cl)ccc3c2=O)cc1` [Example 40, 2-(6-chloro-1-oxo-4-(pyridin-3-ylmethyl)phthalazin-2(1H)-yl)-N-ethyl-N-(4-ethylphenyl)acetamide] cannot be ordered by EC50: under 10 µM for the first, under 10 µM for the second.

`CCc1ccc(N(CC)C(=O)Cn2nc(Cc3cccnc3)c3cccc(F)c3c2=O)cc1` [Example 37, N-ethyl-N-(4-ethylphenyl)-2-(8-fluoro-1-oxo-4-(pyridin-3-ylmethyl)phthalazin-2(1H)-yl)acetamide] and `CCc1ccc(N(CC)C(=O)Cn2nc(Cc3cccnc3)c3ccc(Cl)cc3c2=O)cc1` [Example 39, 2-(7-chloro-1-oxo-4-(pyridin-3-ylmethyl)phthalazin-2(1H)-yl)-N-ethyl-N-(4-ethylphenyl)acetamide] cannot be ordered by EC50: under 10 µM for the first, under 10 µM for the second.

`CCc1ccc(N(CC)C(=O)Cn2nc(Cc3cccnc3)c3cc(Cl)c(Cl)cc3c2=O)cc1` [Example 38, 2-(6,7-dichloro-1-oxo-4-(pyridin-3-ylmethyl)phthalazin-2(1H)-yl)-N-ethyl-N-(4-ethylphenyl)acetamide] and `CCc1ccc(N(CC)C(=O)Cn2nc(Cc3cccnc3)c3ccncc3c2=O)cc1` [Example 41, N-ethyl-N-(4-ethylphenyl)-2-(4-oxo-1-(pyridin-3-ylmethyl)pyrido[3,4-d]pyridazin-3(4H)-yl)acetamide] cannot be ordered by EC50: over 20 µM for the first, over 20 µM for the second.

Compared with `CCc1ccc(N(CC)C(=O)Cn2nc(Cc3cccnc3)c3cnccc3c2=O)cc1` [Example 42, N-ethyl-N-(4-ethylphenyl)-2-(1-oxo-4-(pyridin-3-ylmethyl)pyrido[3,4-d]pyridazin-2(1H)-yl)acetamide], `CCc1ccc(N(CC)C(=O)Cn2nc(Cc3cccnc3)c3ncccc3c2=O)cc1` [Example 43, N-ethyl-N-(4-ethylphenyl)-2-(5-oxo-8-(pyridin-3-ylmethyl)pyrido[2,3-d]pyridazin-6(5H)-yl)acetamide] is lower in EC50: over 20 µM for the first, 10 to 20 µM for the second. The second is the more potent here.

`CCN(C(=O)Cn1nc(Cc2cccnc2)c2cc(OC)c(OC)cc2c1=O)c1ccc2c(c1)OC(F)(F)O2` [Example 44] and `CCN(C(=O)Cn1nc(Cc2cccnc2)c2cc(OC)ccc2c1=O)c1ccc2c(c1)OC(F)(F)O2` [Example 51, N-(2,2-difluorobenzo[d][1,3]dioxol-5-yl)-N-ethyl-2-(6-methoxy-1-oxo-4-(pyridin-3-ylmethyl)phthalazin-2(1H)-yl)acetamide] cannot be ordered by EC50: under 10 µM for the first, under 10 µM for the second.

`CCN(C(=O)Cn1nc(Cc2cccnc2)c2ccc(C)cc2c1=O)c1ccc2c(c1)OC(F)(F)O2` [Example 45, N-(2,2-difluorobenzo[d][1,3]dioxol-5-yl)-N-ethyl-2-(7-methyl-1-oxo-4-(pyridin-3-ylmethyl)phthalazin-2(1H)-yl)acetamide] and `CCN(C(=O)Cn1nc(Cc2cccnc2)c2cc(C)ccc2c1=O)c1ccc2c(c1)OC(F)(F)O2` [Example 46, N-(2,2-difluorobenzo[d][1,3]dioxol-5-yl)-N-ethyl-2-(6-methyl-1-oxo-4-(pyridin-3-ylmethyl)phthalazin-2(1H)-yl)acetamide] cannot be ordered by EC50: under 10 µM for the first, under 10 µM for the second.

`CCN(C(=O)Cn1nc(Cc2cccnc2)c2cccc(C)c2c1=O)c1ccc2c(c1)OC(F)(F)O2` [Example 47, N-(2,2-difluorobenzo[d][1,3]dioxol-5-yl)-N-ethyl-2-(8-methyl-1-oxo-4-(pyridin-3-ylmethyl)phthalazin-2(1H)-yl)acetamide] and `CCN(C(=O)Cn1nc(Cc2cccnc2)c2c(C)cccc2c1=O)c1ccc2c(c1)OC(F)(F)O2` [Example 48, N-(2,2-difluorobenzo[d][1,3]dioxol-5-yl)-N-ethyl-2-(5-methyl-1-oxo-4-(pyridin-3-ylmethyl)phthalazin-2(1H)-yl)acetamide] cannot be ordered by EC50: under 10 µM for the first, under 10 µM for the second.

`CCN(C(=O)Cn1nc(Cc2cccnc2)c2cc(C(C)(C)C)ccc2c1=O)c1ccc2c(c1)OC(F)(F)O2` [Example 49, 2-(6-(tert-butyl)-1-oxo-4-(pyridin-3-ylmethyl)phthalazin-2(1H)-yl)-N-(2,2-difluorobenzo[d][1,3]dioxol-5-yl)-N-ethylacetamide] and `CCN(C(=O)Cn1nc(Cc2cccnc2)c2ccc(C(C)(C)C)cc2c1=O)c1ccc2c(c1)OC(F)(F)O2` [Example 50, 2-(7-(tert-butyl)-1-oxo-4-(pyridin-3-ylmethyl)phthalazin-2(1H)-yl)-N-(2,2-difluorobenzo[d][1,3]dioxol-5-yl)-N-ethylacetamide] cannot be ordered by EC50: under 10 µM for the first, under 10 µM for the second.

`CCN(C(=O)Cn1nc(Cc2cccnc2)c2ccc(OC)cc2c1=O)c1ccc2c(c1)OC(F)(F)O2` [Example 52, N-(2,2-difluorobenzo[d][1,3]dioxol-5-yl)-N-ethyl-2-(7-methoxy-1-oxo-4-(pyridin-3-ylmethyl)phthalazin-2(1H)-yl)acetamide] and `CCN(C(=O)Cn1nc(Cc2cccnc2)c2ccc(Cl)cc2c1=O)c1ccc2c(c1)OC(F)(F)O2` [Example 54, 2-(7-chloro-1-oxo-4-(pyridin-3-ylmethyl)phthalazin-2(1H)-yl)-N-(2,2-difluorobenzo[d][1,3]dioxol-5-yl)-N-ethylacetamide] cannot be ordered by EC50: under 10 µM for the first, under 10 µM for the second.

`CCN(C(=O)Cn1nc(Cc2cccnc2)c2cc(Cl)ccc2c1=O)c1ccc2c(c1)OC(F)(F)O2` [Example 53, 2-(6-chloro-1-oxo-4-(pyridin-3-ylmethyl)phthalazin-2(1H)-yl)-N-(2,2-difluorobenzo[d][1,3]dioxol-5-yl)-N-ethylacetamide] and `CCN(C(=O)Cn1nc(Cc2cccnc2)c2cccc(OC)c2c1=O)c1ccc2c(c1)OC(F)(F)O2` [Example 55, N-(2,2-difluorobenzo[d][1,3]dioxol-5-yl)-N-ethyl-2-(8-methoxy-1-oxo-4-(pyridin-3-ylmethyl)phthalazin-2(1H)-yl)acetamide] cannot be ordered by EC50: under 10 µM for the first, under 10 µM for the second.

Compared with `CCN(C(=O)Cn1nc(Cc2cccnc2)c2c(OC)cccc2c1=O)c1ccc2c(c1)OC(F)(F)O2` [Example 56, N-(2,2-difluorobenzo[d][1,3]dioxol-5-yl)-N-ethyl-2-(5-methoxy-1-oxo-4-(pyridin-3-ylmethyl)phthalazin-2(1H)-yl)acetamide], `CCOc1cccc2c(=O)n(CC(=O)N(CC)c3ccc4c(c3)OC(F)(F)O4)nc(Cc3cccnc3)c12` [Example 58, N-(2,2-difluorobenzo[d][1,3]dioxol-5-yl)-N-ethyl-2-(5-ethoxy-1-oxo-4-(pyridin-3-ylmethyl)phthalazin-2(1H)-yl)acetamide] is higher in EC50: under 10 µM for the first, 10 to 20 µM for the second. The first is the more potent here.

`CCOc1cccc2c(Cc3cccnc3)nn(CC(=O)N(CC)c3ccc4c(c3)OC(F)(F)O4)c(=O)c12` [Example 57, N-(2,2-difluorobenzo[d][1,3]dioxol-5-yl)-N-ethyl-2-(8-ethoxy-1-oxo-4-(pyridin-3-ylmethyl)phthalazin-2(1H)-yl)acetamide] and `CCN(C(=O)Cn1nc(Cc2cccnc2)c2cccc(OC3CCCCC3)c2c1=O)c1ccc2c(c1)OC(F)(F)O2` [Example 59, 2-(8-(cyclohexyloxy)-1-oxo-4-(pyridin-3-ylmethyl)phthalazin-2(1H)-yl)-N-(2,2-difluorobenzo[d][1,3]dioxol-5-yl)-N-ethylacetamide] cannot be ordered by EC50: under 10 µM for the first, under 10 µM for the second.
